Consider 1 molecule from PMC12207802, “Discovery of coniferaldehyde as an inhibitor of caseinolytic protease to combat Staphylococcus aureus infections” (Molecular Medicine, 2025).

The structures appear in SMILES notation.

This experiment addresses T1, Caseinolytic protease P (ClpP) (Staphylococcus aureus, UniProt Q2G036).
T1 construct: clpP of S. aureus NCTC 8325-4 in pET-28a (+), Ni-purified
The experiment is described as follows: fluorogenic Suc-Leu-Tyr-AMC peptidase assay with purified ClpP; supported by fluorescence quenching (Ka), CETSA, CD and ClpXP GFP-SsrA degradation. The class given is biochemical.

T1 sequence (Q2G036 whole entry): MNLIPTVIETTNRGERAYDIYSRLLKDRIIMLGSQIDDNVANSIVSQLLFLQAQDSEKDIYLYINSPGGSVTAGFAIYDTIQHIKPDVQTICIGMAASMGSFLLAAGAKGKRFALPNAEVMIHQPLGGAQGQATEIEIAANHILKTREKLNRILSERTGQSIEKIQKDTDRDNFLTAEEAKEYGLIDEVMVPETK

`COc1cc(/C=C/C=O)ccc1O` [CA, 4-hydroxy-3-methoxycinnamaldehyde] gave an IC50 of 103 µM.

What is called IC50 is the point on the concentration scale where inhibition reaches its midpoint. Low readings indicate higher potency, high ones lower potency.
